Source: patent US9642367B2, “Microbicidal composition” (Dow Global Technologies LLC, priority 2013, dated 2017)

Legend:
Type in all cases: cell-based
[1] = tested on: Candida albicans (C. albicans, ATCC #10231); test: MIC / synergy evaluation in 96 well microtiter plate, yeast in Yeast Malt Extract Broth; details: visual turbidity; for MIC: Candida albicans, ATCC10231, single active acting alone, read-out: Minimum Inhibitory Concentration
Excerpt: (§1) One measure of synergism is the industrially accepted method described by Kull, F. C.; Eisman, P. C.; Sylwestrowicz, H. D. and Mayer, R. L., in Applied Microbiology 9:538-541 (1961), using the ratio determined by the formula: Qa/QA+Qb/QB=Synergy Index (“SI”) wherein:
(§2) QA=concentration of compound A (first component) in ppm, acting alone, which produced an end point (MIC of Compound A).
(§3) Qa=concentration of compound A in ppm, in the mixture, which produced an end point.
(§4) QB=concentration of compound B (second component) in ppm, acting alone, which produced an end point (MIC of Compound B).
(§5) Qb=concentration of compound B in ppm, in the mixture, which produced an end point.
(§6) When the sum of Qa/QA and Qb/QB is greater than one, antagonism is indicated. […] The lower the SI, the greater the synergy shown by that particular mixture. The minimum inhibitory concentration (MIC) of a microbicide is the lowest concentration tested under a specific set of conditions that prevents the growth of added microorganisms. The microorganisms tested were Escherichia coli(E. coli, ATCC #8739), a yeast, Candida albicans (C. albicans, ATCC #10231) and mold, Aspergillus niger (A. niger, ATCC #16404).
(§7) MBIT synergy with a secondary biocide was determined by evaluating the minimum biocide or biocide blend concentration required to inhibit microbial growth. All studies were conducted using a 96 well microtiter plate format. For all studies, 200 μl of microbial growth media, containing various concentrations of MBIT alone, the secondary biocide alone, or combinations of both biocide chemistries, was added to individual wells of a microtiter plate. Specifically, Tryptic Soy Broth (TSB) was utilized for bacteria (E. coli, ATCC #8739), Yeast Malt Extract Broth (YMB) for yeast (Candida albicans, ATCC #10231) and Potato Dextrose Broth (PDB) for mold (Aspergillus niger, ATCC #16404). Test organisms, at a final concentration of 10^4 CFU/mL or 10^4 spores/mL, were applied to each well in parallel experiments to initiate the MIC evaluations. Growth medium containing no biocide was utilized as a control in each experimental setup to confirm the growth viability of each organism. Eight concentrations (2-fold dilutions) of each individual biocide were evaluated in the microbial growth inhibition studies in addition to the 64 possible combinations of these biocide concentrations. Evaluation of the individual biocide concentrations is required to achieve an inhibitory concentration end point for synergy index calculation. […] Individual wells were scored as growth or no growth based on visual organism growth turbidity.
(§8) These microorganisms are representative of natural contaminants in many consumer and industrial applications. […] (yeast and mold) or 30° C. (bacteria).

[2] = tested on: Escherichia coli (E. coli, ATCC #8739); test: MIC / synergy evaluation in 96 well microtiter plate, bacteria in Tryptic Soy Broth; details: visual turbidity; for MIC: Escherichia coli, ATCC8739, single active acting alone, read-out: Minimum Inhibitory Concentration
Excerpt: as §1, §2, §3, §4, §5, §6, §7, §8

[3] = tested on: Aspergillus niger (A. niger, ATCC #16404); test: MIC / synergy evaluation in 96 well microtiter plate, mold in Potato Dextrose Broth; details: ATCC16404, single active acting alone, visual turbidity, read-out: Minimum Inhibitory Concentration
Excerpt: as §1, §2, §3, §4, §5
When the sum of Qa/QA and Qb/QB is greater than one, antagonism is indicated. […] The lower the SI, the greater the synergy shown by that particular mixture. […]
MBIT synergy with a secondary biocide was determined by evaluating the minimum biocide or biocide blend concentration required to inhibit microbial growth. […] Eight concentrations (2-fold dilutions) of each individual biocide were evaluated in the microbial growth inhibition studies in addition to the 64 possible combinations of these biocide concentrations. […] Individual wells were scored as growth or no growth based on visual organism growth turbidity. […]

MIC [1] [µg/mL]	MIC [2] [µg/mL]	MIC [3] [mg/mL]	Compound	Minimum Inhibitory Concentration ([1]; single active acting alone) [ppm]	Minimum Inhibitory Concentration ([2]; single active acting alone) [ppm]
188	2500	–	O=C(O)CCCCCCCC(=O)O [Azelaic acid, azelaic acid]	–	–
750	5000	40	CC(O)C(=O)O (stereo not shown) [Lactic acid, lactic acid]	–	–
–	–	–	Cn1sc2ccccc2c1=O [MBIT, N-methyl-1,2-benzisothiazolin-3-one]	1.50	12.50
7.82	10000	0.038	C=CCCCCCCCCC(=O)O [Undecylenic acid, undecylenic acid]	–	–
